These results are taken from PubChem BioAssay (NCI).

Some test systems named below: HOP-62 NSCLC; HOP-92 NSCLC; KM12 colon; SN12C renal; UO-31 renal; EKVX NSCLC; SNB-75 CNS; SF-539 CNS; UACC-257 melanoma.
Holding throughout (assay): NCI tumour cell line growth inhibition, 48 h

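All cell lines were grown in 96-well plates and treated with compound for 48 hours. GI50: concentration for 50% inhibition of growth. TGI: concentration producing complete growth inhibition.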

Consider `CC(=O)OC1COC(Oc2c(C)c3c4c(c2O)[C@@H](C)CC[C@@H]4[C@@H](C)C[C@H]3C=C(C)C)C(O)C1O` (some centres not stated), for which the GI50 in the assay on HOP-62 NSCLC is 17.8 µM; in the assay with HOP-92 NSCLC, 18.7 µM; in the assay with KM12 colon, 17.7 µM; with SN12C renal, 20.8 µM; in the assay on UO-31 renal it was 25.1 µM. Further, the TGI is 34.2 µM in the assay with HOP-62 NSCLC; 36.3 µM in the assay on HOP-92 NSCLC; 33.8 µM in the assay on KM12 colon; 46.8 µM in the assay on SN12C renal; > 100 µM in the assay with UO-31 renal.

As to `CC(=O)c1c(O)c2c([nH]c1=O)CCCC2`, the TGI was > 100 µM in the assay with EKVX NSCLC; 46.5 µM with HOP-62 NSCLC; > 100 µM in the assay with HOP-92 NSCLC; 45.1 µM in the assay on SN12C renal; 29 µM with SNB-75 CNS; 31.2 µM in the assay with UO-31 renal.

With `Nc1ncnc2sc(Nc3ccccc3)nc12`, the TGI in the assay with HOP-62 NSCLC, in the assay on HOP-92 NSCLC, with KM12 colon, with SF-539 CNS, with SN12C renal and with SNB-75 CNS was > 100 µM each time. In addition, the TGI in the assay on UACC-257 melanoma and with UO-31 renal was > 100 µM each time.

In the case of `CC1(C)OC2OC(COC(=O)C(c3ccccc3)c3ccccc3)C3OC(C)(C)OC3C2O1` (configuration not stated), the GI50 in the assay with EKVX NSCLC and in the assay with HOP-62 NSCLC was > 100 µM in each case. For the same compound, the TGI in the assay on EKVX NSCLC, with HOP-62 NSCLC, with HOP-92 NSCLC, with KM12 colon, in the assay on SF-539 CNS and with SN12C renal was > 100 µM throughout. Besides, the figures for the TGI with SNB-75 CNS and with UO-31 renal were 87.2 µM and > 100 µM, respectively.

With `Cc1csc(CCC(N)C(=O)O)n1` (configuration not stated), the TGI in the assay on EKVX NSCLC, in the assay with HOP-92 NSCLC, with KM12 colon, in the assay with SF-539 CNS, with SN12C renal and in the assay on SNB-75 CNS was > 100 µM throughout. Further, the TGI in the assay on UACC-257 melanoma and with UO-31 renal was > 100 µM throughout.

As to `C1CCN2CC3CONC3C2C1` (configuration not stated), the TGI in the assay with EKVX NSCLC, in the assay on HOP-62 NSCLC, in the assay with KM12 colon, with SF-539 CNS, in the assay with SN12C renal and in the assay with SNB-75 CNS was > 100 µM each time. Besides, the TGI in the assay on UACC-257 melanoma and in the assay on UO-31 renal was > 100 µM in each case.

Regarding `CC1(C)CC(O)CC(C)(C)N1.CC1(C)CC(O)CC(C)(C)N1.CC1(C)CC(O)CC(C)(C)N1.CC1(C)CC(O)CC(C)(C)N1.Cl.[Ti]`, the GI50 in the assay with HOP-62 NSCLC, with HOP-92 NSCLC, with KM12 colon, in the assay with SF-539 CNS, in the assay on SN12C renal and in the assay on SNB-75 CNS was > 100 µM throughout. The GI50 with UACC-257 melanoma and in the assay on UO-31 renal was > 100 µM each time. Besides, the TGI in the assay on HOP-62 NSCLC, in the assay with HOP-92 NSCLC, in the assay with KM12 colon, with SF-539 CNS, in the assay on SN12C renal and in the assay with SNB-75 CNS was > 100 µM each time. Besides, the TGI with UACC-257 melanoma and in the assay with UO-31 renal was > 100 µM throughout.

With `CC(C)(C)c1cc(C(OCCl)(C(F)(F)F)C(F)(F)F)c2c(c1)C(C(F)(F)F)(C(F)(F)F)OC21c2ccccc2C(=O)c2ccccc21`, the TGI with EKVX NSCLC, in the assay on KM12 colon, with SF-539 CNS, with SN12C renal, with SNB-75 CNS and in the assay on UACC-257 melanoma was > 100 µM in each case. Moreover, the TGI in the assay on UO-31 renal is > 100 µM.

For the compound `CCN(CC)CCCNc1c2ccc(Cl)cc2nc2ccc(OC)cc12`, the GI50 in the assay on HOP-92 NSCLC was 1.41 µM; in the assay on KM12 colon it was 0.0541 µM; with SN12C renal, 0.0575 µM; with UACC-257 melanoma, 1.83 µM; in the assay with UO-31 renal, 1.63 µM. Besides, the TGI was found to be 3.62 µM in the assay on HOP-92 NSCLC; 4.45 µM with KM12 colon; 3.69 µM in the assay on SN12C renal; 3.41 µM in the assay on UACC-257 melanoma; 4.83 µM in the assay with UO-31 renal.

With `C1=C(c2ccccc2)C(OC2Oc3ccccc3C=C2c2ccccc2)Oc2ccccc21` (configuration not stated), the TGI in the assay with EKVX NSCLC, in the assay with HOP-62 NSCLC, in the assay with HOP-92 NSCLC, in the assay on KM12 colon, in the assay on SN12C renal and in the assay on SNB-75 CNS was > 100 µM each time. For the same compound, the TGI in the assay on UACC-257 melanoma and in the assay on UO-31 renal was > 100 µM throughout.

Regarding `Nc1c(-c2nc3ccccc3s2)[n+]([O-])c2ccccc2[n+]1[O-]`, the TGI in the assay with EKVX NSCLC is > 100 µM; with HOP-62 NSCLC it was 78.5 µM; with HOP-92 NSCLC, 62.3 µM; with KM12 colon it was > 100 µM; with SF-539 CNS it was 78.8 µM; with SNB-75 CNS, 76.5 µM. The TGI in the assay with UACC-257 melanoma is > 100 µM; in the assay on UO-31 renal it was 77.7 µM.

Consider `O=C(CCC(=O)C1Cc2ccccc2C1=O)Nc1cccc(C(F)(F)F)c1` (configuration not stated), for which the TGI in the assay on EKVX NSCLC, with HOP-62 NSCLC, with HOP-92 NSCLC, with KM12 colon, with SF-539 CNS and with SN12C renal was > 100 µM each time. For the same compound, the TGI in the assay on UACC-257 melanoma and in the assay with UO-31 renal was > 100 µM in each case.
